We go through seven compounds from patent US20150174112A1, “COMPOSITIONS FOR TREATING FRAGILE X AND OTHER DISORDERS METHODS OF USE THEREOF, AND SCREENING FOR COMPOUNDS FOR FRAGILE X AND OTHER DISORDERS” (EMORY UNIVERSITY, priority 2005, published 2015).

Holding throughout (assay type): in vivo, Drosophila
The subject of data set [1] is mushroom body structure in dfmr1 null fly brain. In words: Staining and analysis of mushroom body morphology. The settings on record: for mushroom body defects of dfmr1 mutant adults (in words): 0- to 2-day-old adults developed on LF supplemented with drug at optimal viability dose; for brain structural abnormality (mushroom body formation) in treated dFmr1 flies (in words) / percentage of normal brains (mushroom body) after treatment: Example 2; for percentage of normal brains (mushroom body) after treatment: dFmr1 flies, 27% without treatment. An excerpt:
A striking morphological phenotype of dfmr1 deficiency in Drosophila involves structural abnormalities of the mushroom body in the fly brain. The mushroom body, important for Drosophila learning and memory, is an axon-like fiber structure composed of three paired neuronal lobes (the α, β, and γ lobes). In dfmr1 null flies, the β lobes, which normally terminate at the midline cleft, often cross through the midline. In addition, dfmr1 null flies also have missing or misdirected α and β lobes, as well as truncated or over-branched lobes. […] To test whether compounds identified in the viability screen could rescue the mushroom body morphology, 0- to 2-day-old dfmr1 mutant adults were examined that developed on LF supplemented with four of the nine compounds identified above (GABA, nipecotic acid, creatinine, and isopilocarpine).
Brains from 0- to-2-day-old adults were dissected, fixed, and stained. Anti-Fascicilin II (ID4, Developmental Studies Hybridoma Bank) was used at 1:10 dilution and Alexa anti-mouse secondary antibody (Molecular probes) 1:100. Confocal microscopy was performed using a Leica Scanning laser confocal microscope. Neuronal lobe abnormalities were analyzed and scored by obtaining optical stacks of the α and β lobes as described.

Another data set relates to Futsch. In words: Quantitative Western analysis of Futsch protein in fly head lysates. The settings on record: flies raised on LF with drug at effective dosage. An excerpt: FIG. 3A illustrates a representative Western blot showing Futsch expression in w^1118, dfmr1^3+/−, and dfmr1^3−/− head lysates. Flies were raised on LF with or without drug supplements using the effective dosages. Heads from 0- to 2-day old adult flies were used to prepare protein lysates. β-actin was used as a loading control.
FIG. 3B illustrates the quantification of relative Futsch protein level from multiple Western blots using Kodak Imaging System software. The quantifications were based on duplicate Western analyses obtained from triplicate collections of […] from two separate drug treatments (6 sets of samples total). The futsch levels were first normalized to β-actin levels, then plotted as the percentage of change of each treatment/genotype compared to w^1118 (no drug), which was set as 100%.
Additionally, it was tested whether the same four compounds could rescue the biochemical phenotype of Futsch over-expression that is associated with dfmr1 deficiency. The mRNA of Futsch is normally bound and translationally repressed by dFmrp. Thus, loss of dFmrp results in excess Futsch translation.
Quantitative Western analyses were performed. Briefly, 0- to 2-day-old adult Drosophila heads were obtained, and homogenized in lysis buffer (10 mM Tris (pH 7.5), 150 mM NaCl, 30 mM EDTA (pH 8.0), 0.5% Triton X-100, and 1× complete protease inhibitor (Boehringer Mannheim). 30 fly heads were collected per sample. 10 μg total protein lysates were subjected to SDS-PAGE electrophoresis on a 4%-20% gradient Tris-HCl gel (Bio-Rad). Monoclonal anti-22C10 against Futsch (1:500) was purchased from the Developmental Studies Hybridoma Bank (DSHB), University of Iowa. For the loading control, an antibody against […] (Abcam) was used at a final concentration of 0.8 μg/ml. The signals were quantified using the Kodak Imaging System software.

In another data set the test system is dfmr1 null embryos. In words: Initial small molecule screen: pupae/adult recovery of dfmr1 null embryos on commercial food (CF). The conditions noted are these: 12 null embryos per vial, CF supplemented with 40 μM compound, 25° C., 10 to 15 days. From the text: Since the rescue of dfmr1 null lethality is an easily scored phenotype, a relatively high throughput strategy was designed to screen chemical libraries for small molecules that can restore the viability of dfmr1 null flies raised on CF (FIG. 1D). In order to seed test vials with dfmr1 null embryos only, the dfmr1 mutation was balanced with a GFP-TM6C chromosome (w^1118; dfmr1^3/Kr: GFP, TM6C). This allowed sorting of the null dfmr1 mutants from other embryos by the absence of GFP fluorescence using a flow cytometry embryo sorter (COPAS SELECT). […]
The Spectrum Collection™ compound library was obtained from MicroSource Discovery Systems, Inc. Drugs used in larger quantities for confirmation and subsequent analysis were obtained from Sigma (St. Louis, Mo.) or Tocris-Cookson (UK). […]
(§1) For the initial screen, 12 dfmr13/dfmr13 (GFP−) embryos were placed in each well of a 96 well plate with CF+40 μM of individual drugs. 96-well plates were kept at 25° C. and the percentage of pupae and adults recovered was scored. […] Adult progeny were counted and the relative viability of homozygous null flies was scored as the percentage of viable adult progeny raised on CF+ drug compared to the progeny on LF alone.

Data set [2] deals with homozygous dfmr1-deficient flies. In words: Fly viability assay: rescue of homozygous dfmr1 flies on CF (JAZMIX) plus drug. The settings on record: for recovery of homozygous dFmr1 flies: 0% on JAZMIX food alone. The method, then:
In particular, embodiments of the present disclosure include methods of screening compounds using a drosophila (fruit fly) based compound screen to identify drug candidates for the treatment of FMRP-loss related disorders.
The homozygous embryos are placed into an appropriate container (e.g., a 96-well container) containing a food with a lethal amount of glutamate and with or without a compound from a library of drugs candidates. The embryos were incubated at certain conditions for a certain amount of time (e.g., at about 25° C. for about 10 days) to allow embryonic development. The efficacy of the drug candidate is determined by scoring the number of pupae formation or the emergence of adult flies after a certain time frame. Files or pupae that came out from food with a nonlethal amount of glutamate were used as positive control, and flies or pupae that came out from food with lethal amounts of glutamate without drugs were used as negative control.
The separated homozygous embryos are then transferred to a regular fly culture vials or a 96-well container (e.g., 20 embryos per well) containing food with a lethal amount of glutamate with or without the drug (e.g., 300 μl of pre-mixed food and the drug). The embryos were incubated at 25° C. for about 10 days to allow embryonic development. The formation of pupae or adult flies can be directly quantified by visual inspection. Efficacy of drugs is determined by scoring the number of pupae formation or the emergence of adult flies after 10 days. Additional details regarding the active compositions and disorders are described in the Examples below.
(§2) To determine the cause of the observed CF lethality of dfmr1-deficient flies, HPLC amino acid analyses was performed on aqueous extracts of CF and LF food preparations and noted that the CF contained 1.8-fold more glutamate than the LF (FIG. 4). Since this could result in excess glutamate signaling, exacerbating the consequences of dFmrp loss, it was next determined whether supplementing LF with additional glutamate could decrease the viability of dfmr1-deficient flies. […] Indeed, 10 μM MPEP added to the CF rescued the homozygous deficient flies to approximately 60% of their normal viability on LF (FIG. 1C).
Fifteen of those compounds, as well as the MPEP-positive control, recovered pupal development from at least 25% of the seeded embryos (FIG. 5, Table 1). Each of these top 15 compounds underwent further validation using a larger-scale viability assay. Each vial was seeded with 100 embryos from dfmr1 heterozygous crosses, and adult progeny of both homozygous and heterozygous genotypes were counted 10 days later. Nine of the 15 compounds were validated and, for each of these, a dose-response analysis was performed to optimize the dosage (FIG. 5, Table 1). Using the optimal viability dose for each validated compound, it was explored whether other established phenotypes of dfmr1 deficiency are influenced by a selection of these compounds.
as §1

In data set [3] the test system is dfmr1 homozygous null progeny. In words: Viability of flies on laboratory food (LF) supplemented with glutamate. The settings on record: glutamate added to LF, p<0.005. The method, then: FIG. 1B illustrates dfmr1-deficient flies raised on LF are sensitive to supplemented glutamate. Embryos of w^1118, dfmr1^3+/− and dfmr1^3−/− were allowed to develop on LF supplemented with additional glutamate. Relative viability was calculated within each genotype as the percentage of viable adult progeny raised on LF supplemented with glutamate compared to progeny raised on LF alone. (For w^1118 only: anything above 100% was indicated as 100%). (Error bar indicate SEM; *=P<0.005).
as §2

`NCCCC(=O)O` [GABA]: the “mushroom body defects of dfmr1 mutant adults (in words)” value (from here on “mushroom body defects”) in data set [1] is reported as “significantly improved”. Also, the “elevated Futsch protein level in dfmr1 null flies (in words)” value (shortened to “elevated Futsch protein level”) in the data set with Futsch was “did not significantly influence”.

For the compound `Cc1cccc(C#Cc2ccccc2)n1` [MPEP], the “pupal development recovered, percentage of the seeded embryos” value with dfmr1 null embryos is reported as “at least 25%”. Moreover, in data set [2] (10 μM MPEP added to CF), the “viability of homozygous deficient flies relative to their normal viability on LF” value is listed as “approximately 60%”. Moreover, the “dfmr1^3−/− viability on CF (in words)” value in data set [2] (CF supplemented with MPEP (10 μM), FIG. 1C, P<0.005) was “improved”. Further, the “mushroom body defects” value in data set [1] was “rescued”. Also, in the data set on Futsch, the “elevated Futsch protein level” value is listed as “significantly reduced”.

Take `CC[C@@H]1C(=O)OC[C@@H]1Cc1cncn1C` [Pilocarpine nitrate]: in data set [2] (5 microM in JAZMIX food), the “recovery of homozygous dFmr1 flies” value came to 88.5%. Moreover, in data set [1], the “brain structural abnormality (mushroom body formation) in treated dFmr1 flies (in words)” value is given as “significant suppression” and the “percentage of normal brains (mushroom body) after treatment” value (“percentage of normal brains” for short) is reported as 79%.

In the case of `CN1CC(=O)NC1=N` [creatinine], the “recovery of homozygous dFmr1 flies” value in data set [2] (40 microM in JAZMIX food) is listed as 123.2%. In data set [1], the “percentage of normal brains” value was found to be 85%.

In the case of `N[C@@H](CCC(=O)O)C(=O)O` [glutamate], the “viability of dfmr1 homozygous null progeny” value in data set [3] is given as “dose-dependent decline”.

Turning to `CC[C@H]1C(=O)OC[C@@H]1Cc1cncn1C` [isopilocarpine], in data set [1], the “mushroom body defects” value is given as “significantly improved”. Further, the “elevated Futsch protein level” value with Futsch is recorded as “completely rescued”.

In the case of `O=C(O)C1CCCNC1` (centres unmarked) [nipecotic acid], in data set [2] (40 microM in JAZMIX food), the “recovery of homozygous dFmr1 flies” value was determined as 84%. Also, in data set [1], the “mushroom body defects” value is given as “significantly improved”, the “brain structural abnormality (mushroom body formation) in treated dFmr1 flies (in words)” value was “significant suppression” and the “percentage of normal brains” value was 73%. For the same compound, the “elevated Futsch protein level” value in the data set with Futsch was “did not significantly influence”.
